Experimental findings from patent US20260248881A1, “PHARMACEUTICAL COMPOSITION COMPRISING FOXM1 INHIBITOR AND IMMUNE CHECKPOINT INHIBITOR FOR PREVENTING OR TREATING CANCER” (National Cancer Center, priority 2022, published 2026) are described below.

For series [1], the system named is CD274 (PD-L1). The experiment in a line: Semi-quantitative PCR of PD-L1 (CD274) transcript in H1299 and PC9 cells. In kind it is cell-based, human. Particulars: TST in the presence of IFN-γ. The procedure:
H1299 and PC9 cells purchased from ATCC (Manassas, VA, USA) were cultured in RPMI-1640 medium (#10-040-CV; Corning, New York, NY, USA) supplemented with 10% […] (#35-010-CV; Corning) and penicillin-streptomycin antibiotic cocktail (#15240062; Thermo Fisher Scientific, Waltham, MA, USA) at 37° C. and 5% CO2.
H1299 and PC9 LUAD cells were transfected with 5 nM negative control (NC) or FOXM1 siRNA (siFOXM1) (QIAGEN, Hilden, Germany) using Lipofectamine RNAiMAX (#13778150; Thermo Fisher Scientific). Human FOXM1 isoform b (pFLAG-FOXM1)-expressing plasmid or empty vector (pFLAG-CMV; mock) was transfected into H1299 and PC9 cells using Lipofectamine 2000 reagent (#11668019; Thermo Fisher Scientific) according to the manufacturer's instructions.
Total RNA was extracted and purified using the RNeasy kit (#74004; QIAGEN) according to the manufacturer's protocol. Reverse transcription of mRNA was performed using a PrimeScript 1st Strand CDNA Synthesis Kit (#6110A; TaKaRa Bio, Otsu, Japan). Quantitative PCR was performed using primers specific for the CD274 and FOXM1 genes designed using Primer 3 software. A β-actin gene was used as an internal control group to normalize target gene expression.

Series [2] has as its system CD274 promoter. Description: ChIP-PCR of FOXM1 binding to CD274 promoter. In kind it is cell-based, human. Particulars: H1299 and PC9; vs respective controls. The method, then: To cross-link proteins to DNA, H1299 and PC9 cells were treated with 0.7% formaldehyde at 37° C. for 10 minutes. Cross-linking was quenched by adding glycine to the culture medium at a final concentration of 0.125 M for 5 minutes. The cells were sonicated using a Bioruptor Next Gen sonicator (Diagenode, Denville, NJ, USA) for 5 minutes in 30 s on/30 s off cycle to obtain ~500 bp DNA fragments. The sonicated cell lysates containing genomic DNA fragments were pre-cleared to eliminate unwanted nonspecific components. ChIP was performed using antibody against FOXM1 (#sc-271746, Santa Cruz Biotechnology) with rotation at 4° C. overnight, followed by various washing steps, reverse cross-linking, and protein digestion with proteinase K (#P2308; Sigma-Aldrich, St. Louis, MO, USA). The immunoprecipitated DNA fragments were purified using a phenol-chloroform method, and the purified DNA pellets were resuspended in TE buffer (pH 8.0) and used for PCR. Primers specifically detecting a FOXM1 binding region were designed using a Primer3 tool for chromatin immunoprecipitation-PCR (ChIP-PCR) (Table 1).

Series [3] in a line: In vivo toxicity in xenograft mice (serum biochemical analysis, H&E, TUNEL of normal tissues). The method, then: IHC staining was performed using anti-rabbit-HRP antibodies (K4003, EnVision+ HRP Labelled Polymer Anti-Rabbit, Dako, Agilent Technologies, Carpinteria, CA, USA) and 3,3′-diaminobenzidine (DAB) (K3468, DAB+ Chromogen, Dako, Agilent Technologies, Santa Clara, CA, USA) as substrates, and the sections were counterstained with hematoxylin (K8008, EnVision FLEX Hematoxylin, Dako, Agilent Technologies Singapore, Singapore). To analyze the in vivo toxicity of the tested drugs, four xenograft mice from each group were used for serum biochemical analysis (Table 2). On day 9, serum samples were collected from the mice in the control and TST-treated groups. In addition, the vital organs (liver, spleen, and kidney) were collected form mice, sectioned, and stained with H&E to monitor histopathological changes.

For series [4], the system named is FOXM1 and PD-L1. The experiment in a line: FOXM1 and PD-L1 expression in MC38 cells (immunoblotting, confocal imaging). In kind it is cell-based, mouse. The method, then:
Human colorectal cancer cell lines (HCT116, HCT8, and SW480) and human primary coronary artery smooth muscle cells (SMCs) were purchased from the American Type Culture Collection (Manassas, VA, USA), and a MC38 mouse colorectal adenocarcinoma cell line was provided by Dr. Beom-Kyu Choi (National Cancer Center, Goyang, Republic of Korea). MC38 cells were cultured in Dulbecco's modified Eagle's medium (DMEM) supplemented with 10% FBS and 1% penicillin/streptomycin. SW480 and HCT8 cells were cultured in Roswell Park Memorial Institute (RPMI) medium supplemented with 10% FBS and 1% penicillin/streptomycin. […]
For immunoblotting analysis, protein concentrations were measured using a bicinchoninic acid kit (Cat. 23225; Thermo Fisher Scientific, Carlsbad, CA, USA). […] The appropriate secondary antibodies conjugated to horseradish peroxidase were bound to the washed membrane, and protein bands were detected using a chemiluminescence kit (Thermo Fisher Scientific, Carlsbad, CA, USA).
To confirm the dose-dependent downregulation of PD-L1 levels by TST, which is a FOXM1 inhibitor, live cell imaging was performed on PD-L1 expression in MC38 cells. […] Fluorescence images of nuclei (λex 359 nm, λem 457 nm) and PD-L1 (λex 590 nm, λem 618 nm) were obtained using a confocal scanning laser microscope (LSM780; Carl Zeiss, Oberkochen, Germany).

thiostrepton [TST]: in series [1], the “PD-L1 mRNA expression” value is “concentration-dependent decrease”. Also, in series [2], the “FOXM1 binding to the CD274 promoter” value was “dramatic decrease”. Moreover, the “histological changes in vital organs (H&E staining)” value in series [3] (liver, spleen, kidney) is “no significant histological changes”. Further, in series [3] (serum, day 9, n = 4), the A/G ratio came out at 1.99 ± 0.13, the ALP is listed as 91.50 ± 15.04 U/L, the ALT was 31.25 ± 4.21 U/L and the AST worked out at 82.75 ± 8.58 U/L. Also, in series [3] (serum, day 9, n = 4), the Alb is 3.28 ± 0.08 g/dL, the BUN is listed as 19.70 ± 1.11 mg/dL, the Crea came out at 0.00 ± 0.00 mg/dL and the Glo was 1.65 ± 0.09 g/dL. In addition, in series [3] (serum, day 9, n = 4), the Glu was found to be 321.00 ± 58.73 mg/dL, the T-Bill is 0.10 ± 0.00 mg/dL, the T-chol is given as 107.50 ± 3.20 mg/dL and the TG is given as 118.00 ± 14.88 mg/dL. Besides, the TP in series [3] (serum, day 9, n = 4) was determined as 4.93 ± 0.08 g/dL. The “levels of blood biomarkers” value in series [3] (vs DMSO control group) is reported as “not significantly changed”. In series [3] (vs DMSO control tissues), the “apoptotic cell death in normal tissues (TUNEL assay)” value was “no effect on apoptotic cell death in normal tissues”. Also, the “level of PD-L1 in the plasma membrane” value in series [4] (MC38, TST 0, 1, 5, and 10 μM, 48 hours) is reported as “dose-dependently decreased”. Besides, in series [4] (MC38 mouse colorectal cancer cells), the “FOXM1 and PD-L1 expression levels” value is on record as “dose-dependently decreased”.
